We go through eight molecules from patent publication US10087192B2, “2-(het)aryl-substituted fused bicyclic heterocycle derivatives as pesticides” (BAYER CROPSCIENCE AKTIENGESELLSCHSAFT, priority 2015, dated 2018).

Assay type in all cases: in vivo
Experiment [1] relates to Spodoptera frugiperda. Description: Spodoptera frugiperda spray test (maize leaf discs). Particulars: 500 g/ha, after 7 days, caterpillars on maize leaf discs. The protocol: Spodoptera frugiperda—Spray Test Solvent: 78.0 parts by weight of acetone • • 1.5 parts by weight of dimethylformamide Emulsifier: alkylaryl polyglycol ether […] To produce further test concentrations, the preparation is diluted with emulsifier-containing water. Leaf discs of maize (Zea mays) are sprayed with an active compound preparation of the desired concentration and, after drying, populated with caterpillars of the armyworm (Spodoptera frugiperda).

The next experiment concerns Phaedon cochleariae. Nature of the experiment: Phaedon cochleariae spray test. To be noted: 500 g/ha, after 7 days, larvae on Chinese cabbage leaf discs. The protocol: Phaedon cochleariae—Spray Test
(§1) Solvent: 78.0 parts by weight of acetone • • 1.5 parts by weight of dimethylformamide
(§2) Emulsifier: alkylaryl polyglycol ether
(§3) To produce a suitable preparation of active compound, 1 part by weight of active compound is dissolved using the stated parts by weight of solvent and made up with water containing an emulsifier concentration of 1000 ppm until the desired concentration is attained. To produce further test concentrations, the preparation is diluted with emulsifier-containing water.
After 7 days, the efficacy in % is determined. 100% means that all the beetle larvae have been killed; 0% means that no beetle larvae have been killed.

Experiment [2] deals with Ctenocephalides felis. Description: Ctenocephalides felis oral test. Particulars: 100 ppm in citrated cattle blood, after 2 days. The source says:
Ctenocephalides felis—Oral Test Solvent: dimethyl sulphoxide […] Dilution with citrated cattle blood gives the desired concentration. About 20 unfed adult cat fleas (Ctenocephalides felis) are placed into a chamber which is closed at the top and bottom with gauze. A metal cylinder whose bottom end is closed with parafilm is placed onto the chamber. The cylinder contains the blood/active compound preparation, which can be imbibed by the fleas through the parafilm membrane.

Experiment [3] relates to Ctenocephalides felis. Nature of the experiment: Ctenocephalides felis in vitro contact test with adult cat fleas. Particulars: 5 μg/cm^2 (500 g/ha), after 48 h. The protocol:
Ctenocephalides felis—In Vitro Contact Tests with Adult Cat Fleas
(§4) For the coating of the test tubes, 9 mg of active compound are first dissolved in 1 ml of acetone p.a. and then diluted to the desired concentration with acetone p.a. 250 μl of the solution are distributed homogeneously on the inner walls and the base of a 25 ml test tube by turning and rocking on an orbital shaker (rocking rotation at 30 rpm for 2 h). With 900 ppm active compound solution and internal surface 44.7 cm^2, given homogeneous distribution, an area-based dose of 5 μg/cm^2 is achieved.
After the solvent has evaporated off, the tubes are populated with 5-10 adult cat fleas (Ctenocephalides felis), sealed with a perforated plastic lid and incubated in a horizontal position at room temperature and ambient humidity. After 48 h, efficacy is determined. To this end, the test tubes are stood upright and the fleas are knocked to the base of the tube. Fleas which remain motionless at the base or move in an uncoordinated manner are considered to be dead or moribund.
100% efficacy means that all the fleas were dead or moribund. 0% efficacy means that no fleas were harmed.

In another experiment the test system is Boophilus microplus. Nature of the experiment: Boophilus microplus injection test. To be noted: 20 μg/animal, assessed after 7 days. The protocol:
Boophilus microplus—Injection Test
(§5) Solvent: dimethyl sulphoxide
To produce a suitable preparation of active compound, 10 mg of active compound are mixed with 0.5 ml of solvent and the concentrate is diluted with solvent to the desired concentration.
1 μl of the active compound solution is injected into the abdomen of 5 engorged adult female cattle ticks (Boophilus microplus). The animals are transferred into dishes and kept in a climate-controlled room.
Efficacy is assessed after 7 days by laying of fertile eggs. Eggs which are not visibly fertile are stored in a climate-controlled cabinet until the larvae hatch after about 42 days. An efficacy of 100% means that none of the ticks has laid any fertile eggs; 0% means that all the eggs are fertile.

For the next experiment, the system named is Rhipicephalus sanguineus. Nature of the experiment: Rhipicephalus sanguineus in vitro contact test with adult brown dog ticks. To be noted: 5 μg/cm^2 (500 g/ha), after 48 h. The protocol: Rhipicephalus sanguineus—In Vitro Contact Tests with Adult Brown Dog Ticks
as §4
After the solvent has evaporated off, the tubes are populated with 5-10 adult dog ticks (Rhipicephalus sanguineus), sealed with a perforated plastic lid and incubated in a horizontal position in the dark at room temperature and ambient humidity. After 48 h, efficacy is determined. To this end, the ticks are knocked to the floor of the tube and incubated on a hotplate at 45-50° C. for not more than 5 min. Ticks which remain motionless on the floor or move in such an uncoordinated manner that they are unable to deliberately avoid the heat by climbing upwards are considered to be dead or moribund.
An efficacy of 100% means that all the ticks were dead or moribund. 0% efficacy means that none of the ticks had been harmed.

The test system of the next experiment is Lucilia cuprina. Description: Lucilia cuprina test. Particulars: 100 ppm, after 2 days, L1 larvae. The protocol: as §5
(§6) To produce a suitable preparation of active compound, 10 mg of active compound are mixed with 0.5 ml of dimethyl sulphoxide, and the concentrate is diluted with water to the desired concentration.
About 20 L1 larvae of the Australian sheep blowfly (Lucilia cuprina) are transferred into a test vessel containing minced horsemeat and the active compound preparation of the desired concentration.
After 2 days, the kill in % is determined. 100% means that all the larvae have been killed; 0% means that no larvae have been killed.

The test system of experiment [4] is Myzus persicae. Nature of the experiment: Myzus persicae spray test (Chinese cabbage leaf discs). Particulars: 500 g/ha, after 6 days. The protocol:
Myzus persicae—Spray Test Solvent: 78 parts by weight of acetone • • 1.5 parts by weight of dimethylformamide Emulsifier: alkylaryl polyglycol ether […] To produce further test concentrations, the preparation is diluted with emulsifier-containing water. Discs of Chinese cabbage leaves (Brassica pekinensis) infested by all stages of the green peach aphid (Myzus persicae) are sprayed with an active compound preparation of the desired concentration.

The next experiment deals with Musca domestica. Nature of the experiment: Musca domestica test. To be noted: after 2 days, adult houseflies. The protocol: as §5, §6
Vessels containing a sponge treated with sugar solution and the active compound preparation of the desired concentration are populated with 10 adult houseflies (Musca domestica).
After 2 days, the kill in % is determined. 100% means that all of the flies have been killed; 0% means that none of the flies have been killed.

Experiment [5] concerns Spodoptera frugiperda. Nature of the experiment: Spodoptera frugiperda spray test (cotton leaves). To be noted: 100 ppm, after 7 days. The protocol: Spodoptera frugiperda—Spray Test
Solvent: 7 parts by weight of dimethylformamide
as §2
To produce a suitable preparation of active compound, 1 part by weight of active compound is dissolved using the stated parts by weight of solvent and made up with water containing an emulsifier concentration of 1000 ppm until the desired concentration is attained. To produce further test concentrations, the preparation is diluted with emulsifier-containing water. If the addition of ammonium salts or/and penetrants is required, these are each added in a concentration of 1000 ppm to the formulation solution.
Cotton leaves (Gossypium hirsutum) are sprayed with an active compound formulation of the desired concentration and populated with caterpillars of the armyworm (Spodoptera frugiperda).
After 7 days, the kill in % is determined. 100% means that all the caterpillars have been killed; 0% means that none of the caterpillars have been killed.

The next experiment deals with Meloidogyne incognita. Description: Meloidogyne incognita test. Particulars: 20 ppm, after 14 days, lettuce. The protocol: Meloidogyne incognita Test
Solvent: 125.0 parts by weight of acetone
To produce a suitable preparation of active compound, 1 part by weight of active compound is mixed with the stated amount of solvent and the concentrate is diluted with water to the desired concentration.
Vessels are filled with sand, active compound solution, an egg/larvae suspension of the southern root-knot nematode (Meloidogyne incognita) and lettuce seeds. The lettuce seeds germinate and the plants develop. The galls develop on the roots.
After 14 days, the nematicidal efficacy in % is determined by the formation of galls. 100% means that no galls were found; 0% means that the number of galls on the treated plants corresponds to the untreated control.

Experiment [6] deals with Myzus persicae. Nature of the experiment: Myzus persicae spray test (bell pepper plants). To be noted: 100 ppm, after 6 days. The protocol:
Myzus persicae Spray Test Solvent: 7 parts by weight of dimethylformamide Emulsifier: alkylaryl polyglycol ether […] To produce further test concentrations, the preparation is diluted with emulsifier-containing water. If the addition of ammonium salts or/and penetrants is required, these are each added in a concentration of 1000 ppm to the formulation solution. Bell pepper plants (Capsicum annuum) severely infested with the green peach aphid (Myzus persicae) are treated by spraying with the active compound preparation in the desired concentration.

Another experiment relates to Tetranychus urticae. Nature of the experiment: Tetranychus urticae spray test, OP-resistant. To be noted: 500 g/ha, after 6 days, bean leaf discs. The protocol: Tetranychus urticae—Spray Test, OP-Resistant
as §1, §2, §3
Discs of bean leaves (Phaseolus vulgaris) infested with all stages of the greenhouse red spider mite (Tetranychus urticae) are sprayed with an active compound preparation of the desired concentration.
After 6 days, the efficacy in % is determined. 100% means that all the spider mites have been killed; 0% means that no spider mites have been killed.

Each structure is given as a SMILES string.

Turning to `CCS(=O)(=O)c1ccc(-n2nccn2)nc1-c1nc2cc(C(F)(F)F)ncc2n1C` [Example 17], the efficacy is given as 100% with Spodoptera frugiperda [1]; 100% in the experiment on Phaedon cochleariae; 100% in the experiment on Ctenocephalides felis [3]; 100% in the experiment on Rhipicephalus sanguineus; 90% in the experiment with Myzus persicae [4]. For the same molecule, the “efficacy (kill)” value with Ctenocephalides felis [2] turned out to be 98%; with Lucilia cuprina, 100%; in the experiment on Musca domestica (20 ppm), 85%. Further, in the experiment on Boophilus microplus, the “efficacy (laying of fertile eggs)” value is listed as 100%.

In the case of `CCS(=O)(=O)c1ccc(-n2cncn2)nc1-c1nc2cc(C(F)(F)F)ncc2n1C` [Example 32], the efficacy with Phaedon cochleariae and with Myzus persicae [4] was 100% each time. In addition, in the experiment on Spodoptera frugiperda [5], the “efficacy (kill)” value is on record as 100%.

As to `CCS(=O)(=O)c1ccc(-n2cnc(I)c2)nc1-c1nc2cc(C(F)(F)F)ncc2n1C` [Example 14], the efficacy in the experiment with Phaedon cochleariae, in the experiment on Ctenocephalides felis [3] and in the experiment with Myzus persicae [4] was 100% each time. The “nematicidal efficacy (formation of galls)” value in the experiment with Meloidogyne incognita came to 100%. Moreover, the “efficacy (kill)” value in the experiment with Ctenocephalides felis [2], in the experiment with Lucilia cuprina and in the experiment on Spodoptera frugiperda [5] was 100% throughout.

Consider `CCS(=O)(=O)c1ccc(-n2cnc(NC(C)=O)n2)nc1-c1nc2cc(C(F)(F)F)ncc2n1C` [Example 11], for which the efficacy in the experiment with Phaedon cochleariae and with Ctenocephalides felis [3] was 100% each time. For the same molecule, the “efficacy (kill)” value in the experiment with Ctenocephalides felis [2], in the experiment with Myzus persicae [6] and with Lucilia cuprina was 100% each time.

Turning to `CCS(=O)(=O)c1ccc(-n2ccnc2)nc1-c1nc2cc(C(F)(F)F)ncc2n1C` [Example 33], the efficacy was 100% in the experiment with Phaedon cochleariae, 90% in the experiment on Tetranychus urticae, 100% with Ctenocephalides felis [3] and 90% with Myzus persicae [4]. Further, the “efficacy (kill)” value with Ctenocephalides felis [2] was determined as 100%. In the experiment with Boophilus microplus, the “efficacy (laying of fertile eggs)” value is given as 80%.

For `CCS(=O)(=O)c1ccc(N2CCOCC2)nc1-c1nc2cc(C(F)(F)F)ncc2n1C` [Example 1], the “efficacy (kill)” value in the experiment on Ctenocephalides felis [2] was found to be 98%; with Myzus persicae [6], 95%; in the experiment with Lucilia cuprina it was 90%.

As to `CCS(=O)(=O)c1ccc(-n2ccc(C(F)F)n2)nc1-c1nc2cc(C(F)(F)F)ncc2n1C` [Example 8], the efficacy in the experiment with Spodoptera frugiperda [1], in the experiment on Phaedon cochleariae, with Ctenocephalides felis [3] and in the experiment on Myzus persicae [4] was 100% in each case. Further, the “efficacy (kill)” value with Ctenocephalides felis [2] is on record as 95%; with Lucilia cuprina, 100%; with Musca domestica (100 ppm), 100%. In addition, in the experiment on Boophilus microplus, the “efficacy (laying of fertile eggs)” value was 95%.

As to `CCS(=O)(=O)c1ccc(-c2cnc(Cl)n2C)nc1-c1nc2cc(C(F)(F)F)ncc2n1C` [Example 81], the values for the efficacy in the experiment on Spodoptera frugiperda [1], in the experiment with Phaedon cochleariae and with Myzus persicae [4] were 83%, 100% and 90%, respectively. For the same molecule, the “nematicidal efficacy (formation of galls)” value in the experiment with Meloidogyne incognita stood at 100%.
